Measurements reported in patent US6861390B2, “Derivatives of UK-2A” (priority 2001, dated 2005).

What was measured:
[1] = tested on: Leptosphaeria nodorum (LEPTNO); test: Glume Blotch of Wheat, whole plant 24 Hour Protectant (T2); settings: Parastagonospora nodorum; wheat (cultivar Yuma), sprayed at 100 ppm, inoculated after 24 hours; read-out: T2 LEPTNO in vivo 1 Day Protectant, control of fungal infection
[2] = tested on: Phytophthora infestans (PHYTIN); test: whole plant or invertebrate; settings: in Solanum lycopersicum, 24 h, read-out: T3 PHYTIN in vivo 1 Day Protectant, control of fungal infection
[3] = tested on: Puccinia recondita (PUCCRT); test: Brown Rust of Wheat, whole plant 24 Hour Protectant (T5); settings: wheat (cultivar Yuma), sprayed at 100 ppm, inoculated after 24 hours, read-out: T5 PUCCRT in vivo 1 Day Protectant, control of fungal infection
[4] = tested on: Septoria tritici (SEPTTR); test: Leaf Blotch of Wheat, whole plant 24 Hour Protectant (T6); settings: Zymoseptoria tritici; wheat (cultivar Monon), sprayed at 100 ppm, inoculated after 24 hours; read-out: T6 SEPTTR in vivo 1 Day Protectant, control of fungal infection
[5] = tested on: Stagonospora nodorum (Leptosphaeria nodorum, LEPTNO); test: microbe, parasite or virus in culture; assay type: cell-based; settings: Parastagonospora nodorum, read-out: T7 LEPTNO in vitro Growth Inhibition
[6] = tested on: Phytophthora infestans (PHYTIN); test: microbe, parasite or virus in culture; assay type: cell-based; settings: in Secale cereale, read-out: T8 PHYTIN in vitro Growth Inhibition
[7] = tested on: Magnaporthe grisea (Pyricularia oryzae, PYRIOR); test: microbe, parasite or virus in culture; assay type: cell-based; settings: read-out: T9 PYRIOR in vitro Growth Inhibition
[8] = tested on: Rhizoctonia solani (RHIZSO); test: microbe, parasite or virus in culture; assay type: cell-based; settings: read-out: T10 RHIZSO in vitro Growth Inhibition
[9] = tested on: Mycosphaerella graminicola (Septoria tritici, SEPTTR); test: microbe, parasite or virus in culture; assay type: cell-based; settings: Zymoseptoria tritici, read-out: T11 SEPTTR in vitro Growth Inhibition
Ustilago maydis (USTIMA) = test: microbe, parasite or virus in culture; assay type: cell-based; settings: Mycosarcoma maydis, read-out: T12 USTIMA in vitro Growth Inhibition
[10] = tested on: Erysiphe graminis (ERYSGT); test: Powdery Mildew of Wheat, whole plant 24 Hour Protectant (T1); settings: Blumeria graminis, in Triticum aestivum, read-out: T1 ERYSGT in vivo 1 Day Protectant, control of fungal infection
Method: Compound formulation was accomplished by dissolving technical materials in acetone, with serial dilutions then made in acetone to obtain desired concentrations. Final treatment volumes were obtained by adding 9 volumes 0.01% Triton X-100.
Powdery Mildew of Wheat (Erysiphe graminis—ERYSGT) (24 Hour Protectant): Wheat (cultivar Monon) was grown in a soilless peat-based potting mixture (“Metromix”) and mineral soil (50/50 mix) until the seedlings were 10-20 cm tall. These plants were then sprayed to run-off with the test compound at a rate of 100 ppm. After 24 hours the test plants were inoculated by dusting with conidia from powdery mildew infected wheat plants. The plants were then transferred to the greenhouse until disease developed on the untreated control plants.

| SMILES | pest or weed control at 100 ppm [1] | pest or weed control at 100 ppm [2] | pest or weed control at 100 ppm [3] | pest or weed control at 100 ppm [4] | inhibition at 25 ppm [5] | inhibition at 25 ppm [6] | inhibition at 25 ppm [7] | inhibition at 25 ppm [8] | inhibition at 25 ppm [9] | inhibition at 25 ppm (Ustilago maydis (USTIMA)) | melting point | pest or weed control at 100 ppm [10] |
| --- | --- | --- | --- | --- | --- | --- | --- | --- | --- | --- | --- | --- |
| CCOCC(=O)OCOc1c(OC)ccnc1C(=O)N[C@H]1COC(=O)[C@H](Cc2ccccc2)[C@@H](OC(=O)C(C)C)[C@H](C)OC1=O [Compound 31] | 75 to 100% | < 25% | 75 to 100% | 75 to 100% | > 80% | < 80% | > 80% | < 80% | < 80% | < 80% | 79 to 81 °C | 25 to 74% |
| COc1ccnc(C(=O)N[C@H]2COC(=O)[C@H](Cc3ccccc3)[C@@H](OC(=O)C(C)C)[C@H](C)OC2=O)c1OCOCCC#N [Compound 15] | 75 to 100% | < 25% | 75 to 100% | 75 to 100% | > 80% | < 80% | < 80% | > 80% | < 80% | > 80% | 62 to 67 °C | < 25% |
| COc1ccnc(C(=O)N[C@H]2COC(=O)[C@H](Cc3ccccc3)[C@@H](OC(=O)C(C)C)[C@H](C)OC2=O)c1OCOC(C)C [Compound 7] | 75 to 100% | < 25% | 75 to 100% | 75 to 100% | > 80% | < 80% | < 80% | < 80% | < 80% | > 80% | 124 to 127 °C | 25 to 74% |
| COc1ccnc(C(=O)N[C@H]2COC(=O)[C@H](Cc3ccccc3)[C@@H](OC(=O)C(C)C)[C@H](C)OC2=O)c1OCOCCCl [Compound 14] | 75 to 100% | < 25% | 75 to 100% | 75 to 100% | > 80% | < 80% | < 80% | < 80% | < 80% | < 80% | 140 to 143 °C | < 25% |
| CCOCOc1c(OC)ccnc1C(=O)N[C@H]1COC(=O)[C@H](Cc2ccccc2)[C@@H](OC(=O)C(C)C)[C@H](C)OC1=O [Compound 5] | 75 to 100% | < 25% | 75 to 100% | 75 to 100% | > 80% | < 80% | < 80% | < 80% | < 80% | < 80% | 60 to 62 °C | 25 to 74% |
| CCOCCC(=O)OCOc1c(OC)ccnc1C(=O)N[C@H]1COC(=O)[C@H](Cc2ccccc2)[C@@H](OC(=O)C(C)C)[C@H](C)OC1=O [Compound 28] | 75 to 100% | < 25% | 75 to 100% | 75 to 100% | > 80% | < 80% | > 80% | > 80% | > 80% | > 80% | 50 to 55 °C | 25 to 74% |
| COc1ccnc(C(=O)N[C@H]2COC(=O)[C@H](Cc3ccccc3)[C@@H](OC(=O)C(C)C)[C@H](C)OC2=O)c1OCOCC(C)C [Compound 9] | 75 to 100% | < 25% | 75 to 100% | 25 to 74% | > 80% | < 80% | < 80% | > 80% | > 80% | > 80% | 133 to 136 °C | < 25% |
| COc1ccnc(C(=O)N[C@H]2COC(=O)[C@H](Cc3ccccc3)[C@@H](OC(=O)C(C)C)[C@H](C)OC2=O)c1OCOC(C)=O [Compound 20] | 75 to 100% | < 25% | 75 to 100% | 75 to 100% | > 80% | < 80% | < 80% | < 80% | < 80% | > 80% | 146 to 147 °C | 75 to 100% |
| COC(=O)OCOc1c(OC)ccnc1C(=O)N[C@H]1COC(=O)[C@H](Cc2ccccc2)[C@@H](OC(=O)C(C)C)[C@H](C)OC1=O [Compound 44] | 75 to 100% | < 25% | 75 to 100% | 75 to 100% | > 80% | < 80% | < 80% | < 80% | > 80% | < 80% | 140 to 144 °C | 25 to 74% |
| COc1ccnc(C(=O)N[C@H]2COC(=O)[C@H](Cc3ccccc3)[C@@H](OC(=O)C(C)C)[C@H](C)OC2=O)c1OCOC(=O)C(C)(C)C [Compound 24] | 75 to 100% | < 25% | 75 to 100% | 75 to 100% | < 80% | < 80% | > 80% | < 80% | > 80% | < 80% | 178 to 179 °C | 25 to 74% |
| COCCC(=O)OCOc1c(OC)ccnc1C(=O)N[C@H]1COC(=O)[C@H](Cc2ccccc2)[C@@H](OC(=O)C(C)C)[C@H](C)OC1=O [Compound 27] | 75 to 100% | < 25% | 75 to 100% | 75 to 100% | > 80% | < 80% | > 80% | < 80% | > 80% | < 80% | 84 to 86 °C | 75 to 100% |
| COc1ccnc(C(=O)N[C@H]2COC(=O)[C@H](Cc3ccccc3)[C@@H](OC(=O)C(C)C)[C@H](C)OC2=O)c1OCO[Si](C)(C)C [Compound 13] | 75 to 100% | < 25% | 75 to 100% | 75 to 100% | > 80% | < 80% | < 80% | > 80% | < 80% | < 80% | 50 to 52 °C | < 25% |
| COc1ccnc(C(=O)N[C@H]2COC(=O)[C@H](Cc3ccccc3)[C@@H](OC(=O)C(C)C)[C@H](C)OC2=O)c1OCOC(=O)C1CC1 [Compound 26] | 75 to 100% | < 25% | 75 to 100% | 75 to 100% | > 80% | < 80% | < 80% | < 80% | < 80% | < 80% | 152 to 153 °C | 25 to 74% |
| C=C(C)CO[C@H]1[C@H](C)OC(=O)[C@@H](NC(=O)c2nccc(OC)c2OCOC(C)=O)COC(=O)[C@@H]1Cc1ccccc1 [Compound 53] | 75 to 100% | < 25% | 75 to 100% |  | > 80% | > 80% | > 80% | < 80% | > 80% | < 80% | 102 to 104 °C | < 25% |
| COc1ccnc(C(=O)N[C@H]2COC(=O)[C@H](Cc3ccccc3)[C@@H](OC(=O)C(C)C)[C@H](C)OC2=O)c1OCSC [Compound 18] | 75 to 100% | < 25% | 75 to 100% |  | > 80% | < 80% | > 80% | > 80% | > 80% | < 80% | 146 to 148 °C | < 25% |
